Measured values reported in patent publication US9656988B2 (Pharmacyclics LLC, priority 2013, dated 2017).
Read-outs that look alike come from different tables or passages of the source.

Molecular target: BTK (Homo sapiens (Human), UniProt Q06187)
Experiment: Btk in vitro inhibitory activity (one of Method A TR-FRET, Method B electrophoretic mobility shift, Method C radiometric filter binding)
Format: biochemical
[1] = determined using one of the methods of Example 355a, 355b and 355c, read-out: BTK IC50

Sequence of BTK (Q06187 whole entry): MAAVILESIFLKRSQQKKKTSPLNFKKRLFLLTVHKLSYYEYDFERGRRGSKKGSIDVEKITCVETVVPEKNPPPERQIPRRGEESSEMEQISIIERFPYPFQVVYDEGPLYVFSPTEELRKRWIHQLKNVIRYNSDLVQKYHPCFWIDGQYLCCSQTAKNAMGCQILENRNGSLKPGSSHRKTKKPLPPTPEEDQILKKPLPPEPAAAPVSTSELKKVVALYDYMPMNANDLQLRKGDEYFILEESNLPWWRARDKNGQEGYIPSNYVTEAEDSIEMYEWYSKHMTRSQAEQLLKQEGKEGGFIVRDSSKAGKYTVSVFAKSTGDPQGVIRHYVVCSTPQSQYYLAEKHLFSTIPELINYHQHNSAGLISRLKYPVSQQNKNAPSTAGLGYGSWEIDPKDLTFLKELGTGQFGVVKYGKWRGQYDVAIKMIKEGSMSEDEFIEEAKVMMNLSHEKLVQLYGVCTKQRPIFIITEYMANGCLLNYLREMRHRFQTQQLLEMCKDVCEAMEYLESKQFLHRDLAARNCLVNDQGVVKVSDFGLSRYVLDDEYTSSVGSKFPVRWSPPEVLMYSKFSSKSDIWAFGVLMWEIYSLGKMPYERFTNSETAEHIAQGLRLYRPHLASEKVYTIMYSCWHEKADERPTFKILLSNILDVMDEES

| Structure (SMILES) | IC50 (read-out: Btk (IC50)) | IC50 [1] |
| --- | --- | --- |
| Cc1ncc(C(=O)N[C@@H]2CCCN(c3nnc(C(N)=O)c(Nc4ccc(C(=O)N5CCOCC5)cc4)n3)C2)s1 [Example 93, (R)—N-(1-(6-carbamoyl-5-(4-(morpholine-4-carbonyl)phenylamino)-1,2,4-triazin-3-yl)piperidin-3-yl)-2-methylthiazole-5-carboxamide] | < 10 nM |  |
| NC(=O)c1nnc(N2CCC[C@@H](NC(=O)c3nc4ccccc4s3)C2)nc1Nc1ccc(C(=O)N2CCOCC2)cc1 [Example 94, (R)—N-(1-(6-carbamoyl-5-(4-(morpholine-4-carbonyl)phenylamino)-1,2,4-triazin-3-yl)piperidin-3-yl)benzo[d]thiazole-2-carboxamide] | < 10 nM |  |
| NC(=O)c1nnc(N2CCC[C@@H](NC(=O)c3cc(C4CC4)on3)C2)nc1Nc1ccc(C(=O)N2CCOCC2)cc1 [Example 95, (R)—N-(1-(6-carbamoyl-5-(4-(morpholine-4-carbonyl)phenylamino)-1,2,4-triazin-3-yl)piperidin-3-yl)-5-cyclopropylisoxazole-3-carboxamide] | 10 to 100 nM | 10 to 100 nM |
| NC(=O)c1nnc(N2CCC[C@@H](NC(=O)c3ccc(Oc4ccccc4)cc3)C2)nc1Nc1ccc(C(=O)N2CCOCC2)cc1 [Example 96, (R)-5-(4-(morpholine-4-carbonyl)phenylamino)-3-(3-(4-phenoxybenzamido)piperidin-1-yl)-1,2,4-triazine-6-carboxamide] |  | 10 to 100 nM |
| NC(=O)c1nnc(N2CCC[C@@H](NC(=O)c3nc4ccccc4o3)C2)nc1Nc1ccc(C(=O)N2CCOCC2)cc1 [Example 97, (R)—N-(1-(6-carbamoyl-5-(4-(morpholine-4-carbonyl)phenylamino)-1,2,4-triazin-3-yl)piperidin-3-yl)benzo[d]oxazole-2-carboxamide] | 10 to 100 nM | 10 to 100 nM |
| CCN(CC)C(=O)N[C@@H]1CCCN(c2nnc(C(N)=O)c(Nc3ccc(C(=O)N4CCOCC4)cc3)n2)C1 [Example 99, (R)-3-(3-(3,3-diethylureido)piperidin-1-yl)-5-(4-(morpholine-4-carbonyl)phenylamino)-1,2,4-triazine-6-carboxamide] | < 10 nM |  |
| NC(=O)c1nnc(N2CCC[C@@H](NC(=O)c3ccc4c(c3)nnn4C3CC3)C2)nc1Nc1ccc(C(=O)N2CCOCC2)cc1 [Example 102, (R)—N-(1-(6-carbamoyl-5-(4-(morpholine-4-carbonyl)phenylamino)-1,2,4-triazin-3-yl)piperidin-3-yl)-1-cyclopropyl-1H-benzo[d][1,2,3]triazole-5-carboxamide] | < 10 nM | < 10 nM |
| CCCn1nnc2cc(C(=O)N[C@@H]3CCCN(c4nnc(C(N)=O)c(Nc5ccc(C(=O)N6CCOCC6)cc5)n4)C3)ccc21 [Example 103, (R)—N-(1-(6-carbamoyl-5-(4-(morpholine-4-carbonyl)phenylamino)-1,2,4-triazin-3-yl)piperidin-3-yl)-1-propyl-1H-benzo[d][1,2,3]triazole-5-carboxamide] | 10 to 100 nM | < 10 nM |
| NC(=O)c1nnc(N2CCC[C@@H](N3Cc4ccccc4C3=O)C2)nc1Nc1ccc(C(=O)N2CCOCC2)cc1 [Example 104, (R)-5-(4-(morpholine-4-carbonyl)phenylamino)-3-(3-(1-oxoisoindolin-2-yl)piperidin-1-yl)-1,2,4-triazine-6-carboxamide] |  | 10 to 100 nM |
| CC#CC(=O)N1CCC[C@@H](Nc2nnc(C(N)=O)c(Nc3ccc(S(C)(=O)=O)cc3)n2)C1 [Example 105, (R)-3-(1-but-2-ynoylpiperidin-3-ylamino)-5-(4-(methylsulfonyl)phenylamino)-1,2,4-triazine-6-carboxamide] |  | < 10 nM |
| CN(C)C/C=C/C(=O)N1CCC[C@@H](Nc2nnc(C(N)=O)c(Nc3ccc(S(C)(=O)=O)cc3)n2)C1 [Example 106, (R,E)-3-(1-(4-(dimethylamino)but-2-enoyl)piperidin-3-ylamino)-5-(4-(methylsulfonyl)phenylamino)-1,2,4-triazine-6-carboxamide] |  | < 10 nM |
| CN(C/C=C/C(=O)N1CCC[C@@H](Nc2nnc(C(N)=O)c(Nc3ccc(S(C)(=O)=O)cc3)n2)C1)C1CC1 [Example 107, (R,E)-3-(1-(4-(cyclopropyl(methyl)amino)but-2-enoyl)piperidin-3-ylamino)-5-(4-(methylsulfonyl)phenylamino)-1,2,4-triazine-6-carboxamide] |  | < 10 nM |
| NC(=O)c1nnc(N2CCC[C@@H](NC(=O)N3CCCCC3)C2)nc1Nc1cnc2ccccc2c1 [Example 108, (R)-3-(3-(piperidine-1-carboxamido)piperidin-1-yl)-5-(quinolin-3-ylamino)-1,2,4-triazine-6-carboxamide] |  | 100 to 1000 nM |
| NC(=O)c1nnc(N2CCC[C@@H](NC(=O)N3CCCCC3)C2)nc1Nc1ccc2cccnc2c1 [Example 109, (R)-3-(3-(piperidine-1-carboxamido)piperidin-1-yl)-5-(quinolin-7-ylamino)-1,2,4-triazine-6-carboxamide] |  | 100 to 1000 nM |
| CCOc1ccc(Nc2nc(N3CCC[C@@H](NC(=O)c4ccc(OC)cc4)C3)cnc2C(N)=O)cc1 [Example 111, (R)-3-(4-ethoxyphenylamino)-5-(3-(4-methoxybenzamido)piperidin-1-yl)pyrazine-2-carboxamide] | 10 to 100 nM | 10 to 100 nM |
| COCCOc1ccc(Nc2nc(N3CCC[C@@H](NC(=O)c4ccc(OC)cc4)C3)cnc2C(N)=O)cc1 [Example 112, (R)-5-(3-(4-methoxybenzamido)piperidin-1-yl)-3-(4-(2-methoxyethoxy)phenylamino)pyrazine-2-carboxamide] | 10 to 100 nM | 10 to 100 nM |
| CCOCCOc1ccc(Nc2nc(N3CCC[C@@H](NC(=O)c4ccc(OC)cc4)C3)cnc2C(N)=O)cc1 [Example 113, (R)-3-(4-(2-ethoxyethoxy)phenylamino)-5-(3-(4-methoxybenzamido)piperidin-1-yl)pyrazine-2-carboxamide] |  | 10 to 100 nM |
| COc1ccc(C(=O)N[C@@H]2CCCN(c3cnc(C(N)=O)c(Nc4ccc(OCCN(C)C)cc4)n3)C2)cc1 [Example 115, (R)-3-(4-(2-(dimethylamino)ethoxy)phenylamino)-5-(3-(4-methoxybenzamido)piperidin-1-yl)pyrazine-2-carboxamide] |  | < 10 nM |
| COc1ccc(C(=O)N[C@@H]2CCCN(c3cnc(C(N)=O)c(Nc4ccc(OCC[N+](C)(C)[O-])cc4)n3)C2)cc1 [Example 116, (R)-2-(4-(3-carbamoyl-6-(3-(4-methoxybenzamido)piperidin-1-yl)pyrazin-2-ylamino)phenoxy)-N,N-dimethylethanamine oxide] |  | 10 to 100 nM |
| COc1ccc(C(=O)N[C@@H]2CCCN(c3cnc(C(N)=O)c(Nc4ccc(S(C)(=O)=O)cc4)n3)C2)cc1 [Example 117, (R)-5-(3-(4-methoxybenzamido)piperidin-1-yl)-3-(4-(methylsulfonyl)phenylamino)pyrazine-2-carboxamide] |  | < 10 nM |
| COc1ccc(C(=O)N[C@@H]2CCCN(c3cnc(C(N)=O)c(Nc4ccc(C(=O)N(C)C)cc4)n3)C2)cc1 [Example 118, (R)-3-(4-(dimethylcarbamoyl)phenylamino)-5-(3-(4-methoxybenzamido)piperidin-1-yl)pyrazine-2-carboxamide] | 10 to 100 nM | 10 to 100 nM |
| COc1ccc(C(=O)N[C@@H]2CCCN(c3cnc(C(N)=O)c(Nc4cc(C)ns4)n3)C2)cc1 [Example 119, (R)-5-(3-(4-methoxybenzamido)piperidin-1-yl)-3-(3-methylisothiazol-5-ylamino)pyrazine-2-carboxamide] |  | 10 to 100 nM |
